Measurements: article PMC12152147, “DDB1 engagement defines the selectivity of S656 analogs for cyclin K degradation over CDK inhibition” (EMBO Reports, 2025)

Test system: OCI-AML5 cells
Assay: Dose-response proliferative assay in OCI-AML5 (4 days, CellTiterGlo)
Type: cell-based, H. sapiens
Details: Homo sapiens, OCI-AML-5, 96 h, 4 days incubation; read-out: IC50 OCI-AML5
Summary of the method: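 Viability assessed after 4 days of compound exposure at 37 °C, 5% CO2. Compounds tested as 8 dilutions (1:4, 10 μM to 0.5 nM) on 300 OCI-AML5 cells/well grown in αMEM with 10% heat-inactivated FBS and 10 ng/mL GM-CSF.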

CN(CCOCCOCCN)c1ccc(CC(=O)Nc2ncc(SCc3cccnc3)s2)cc1 [UOM-005790]
IC50: 680 nM
